Results as given in US12371454B2, “Cyclic peptide compound having Kras inhibitory action” (priority 2019, dated 2025).
Starred links: 1 amine or outer side, 2 acyl side, 3 side chain; linkers in the order of their positions; H or OH if unused. Positions of bridges follow the written chain, without caps; N, C: chain ends. Non-standard residues stand in square brackets, D forms with d. Residues, ends and D or L forms follow the SMILES beside them. *: point of attachment. NMeAbu(3,3-F2-piperidino) = CN[C@@H](CCN1CCCC(F)(F)C1)C(=O)O; hPhe(3-Cl-4-CF3) = N[C@@H](CCc1ccc(C(F)(F)F)c(Cl)c1)C(=O)O; hPhe(3-F,4-CF3) = N[C@@H](CCc1ccc(C(F)(F)F)c(F)c1)C(=O)O; hPhe(4-CF3) = N[C@@H](CCc1ccc(C(F)(F)F)cc1)C(=O)O; NMePhe(4-Cl) = CN[C@@H](Cc1ccc(Cl)cc1)C(=O)O; NMePhe(4-Me) = CN[C@@H](Cc1ccc(C)cc1)C(=O)O; X33 = Cc1ccc(CC[C@H](N[*:1])C(=O)[*:2])cc1; NMedβ3hAla = C[C@H](CC(=O)[*:2])N(C)[*:1]; NMeGly(cPent) = CN[C@H](C(=O)O)C1CCCC1; NMeCha = CN[C@@H](CC1CCCCC1)C(=O)O; NMeChg = CN[C@H](C(=O)O)C1CCCCC1; NMeF = CN[C@@H](Cc1ccccc1)C(=O)O; NMeI = CC[C@H](C)[C@H](NC)C(=O)O; NMeD = CN[C@@H](CC(=O)O)C(=O)O; NMeL = CN[C@@H](CC(C)C)C(=O)O; NMeNva = CCC[C@H](NC)C(=O)O; NMeV = CN[C@H](C(=O)O)C(C)C; d(β3hA) = C[C@@H](N)CC(=O)O; NMeAbu = CC[C@H](NC)C(=O)O; Iva = CC[C@](C)(N)C(=O)O; NMeA = CN[C@@H](C)C(=O)O; Piperidide = C1CCN(*)CC1; Pyrrolidide = C1CCN(*)C1; dNMeA = CN[C@H](C)C(=O)O; Ac5c = NC1(C(=O)O)CCCC1; Aze = O=C(O)[C@@H]1CCN1; Thp = NC1(C(=O)O)CCOCC1; NPrGly = CCCNCC(=O)O; Sar = CNCC(=O)O

These compounds were tested against T1, Kras and SOS1 (biotin-tagged human Kras loaded with GDP, His-tagged human SOS1) (Homo sapiens, UniProt P01116, G12D) (assay: Protein-protein interaction inhibition between Kras and SOS1 (KrasGl2D-SOS PPI) using AlphaScreen). Conditions: AlphaScreen; biotin-tagged human Kras loaded with GDP, His-tagged human SOS1; read-out: KRAS G12D-SOS PPI IC50.
T1 construct: made in house; host or cells: E. coli (stated for Kras only)
Type: binding
In short: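 Binding between SOS1 and Kras is detected as bead-proximity luminescence: illuminate Ni-conjugated donors (680 nm), collect 520-620 nm emission from streptavidin-conjugated acceptors; Kras carries biotin and GDP loaded after purification, SOS1 carries a His tag.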

T1 sequence (P01116 1-188 isoform P01116-2 G12D): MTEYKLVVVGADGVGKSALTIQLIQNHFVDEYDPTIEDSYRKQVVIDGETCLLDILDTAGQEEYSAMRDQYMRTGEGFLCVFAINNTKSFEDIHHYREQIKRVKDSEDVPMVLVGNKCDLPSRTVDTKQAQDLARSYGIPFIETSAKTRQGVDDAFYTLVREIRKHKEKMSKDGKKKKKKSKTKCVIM

Row | Structure (SMILES) | IC50 [nM]
1 | CC[C@H](C)[C@@H]1NC(=O)[C@H](CC(C)C)N(C)C(=O)C[C@@H](C(=O)N(C)C)N(C)C(=O)[C@H]([C@@H](C)CC)N(C)C(=O)C2(CCCC2)NC(=O)[C@H](C)N(C)C(=O)[C@H](CCc2ccc(C(F)(F)F)c(Cl)c2)NC(=O)CN(C)C(=O)[C@H](Cc2ccc(C)cc2)N(C)C(=O)[C@@H]2CCN2C(=O)[C@H](C)N(C)C1=O [Compound 378, (3S,6S,9S,13S,16S,22S,25S,31S,34S)-25-[2-[3-chloro-4-(trifluoromethyl)phenyl]ethyl]-9-isobutyl-N,N,3,4,10,14,17,22,23,29,32-undecamethyl-6,16-bis[(1S)-1-methylpropyl]-2,5,8,11,15,18,21,24,27,30,33-undecaoxo-31-(p-tolylmethyl)spiro[1,4,7,10,14,17,20,23,26,29,32-undecazabicyclo[32.2.0]hexatriacontane-19,1′-cyclopentane]-13-carboxamide] ([NMeL]I[NMeA][Aze][NMePhe(4-Me)][Sar][hPhe(3-Cl-4-CF3)][NMeA][Ac5c][NMeI][NMeD]-NMe2; lactam N-11) | 0.68
2 | CC[C@H](C)[C@@H]1NC(=O)[C@H](CC(C)C)N(C)C(=O)C[C@@H](C(=O)N(C)C)N(C)C(=O)[C@H]([C@@H](C)CC)N(C)C(=O)[C@H](C(C)C)NC(=O)[C@H](CCN2CCCC(F)(F)C2)N(C)C(=O)[C@H](CCc2ccc(C(F)(F)F)c(Cl)c2)NC(=O)CN(C)C(=O)[C@H](Cc2ccc(C)cc2)N(C)C(=O)[C@@H]2CCN2C(=O)[C@H](C)N(C)C1=O [Compound 379] ([NMeL]I[NMeA][Aze][NMePhe(4-Me)][Sar][hPhe(3-Cl-4-CF3)][NMeAbu(3,3-F2-piperidino)]V[NMeI][NMeD]-NMe2; lactam N-11) | 13
3 | CC[C@H](C)[C@@H]1NC(=O)[C@H](C)N(C)C(=O)C[C@@H](C(=O)N2CCCCC2)N(C)C(=O)[C@H](C(C)C)N(C)C(=O)C2(CCCC2)NC(=O)[C@@H]2CCCN2C(=O)[C@H](CCc2ccc(C(F)(F)F)c(Cl)c2)NC(=O)[C@@H](C)N(C)C(=O)[C@H](CC2CCCCC2)N(C)C(=O)CN(C)C(=O)CN(C)C1=O [Compound 380] ([NMeA]I[Sar][Sar][NMeCha][dNMeA][hPhe(3-Cl-4-CF3)]P[Ac5c][NMeV][NMeD]-Piperidide; lactam N-11) | 5.6
4 | CC[C@H](C)[C@@H]1NC(=O)[C@H](CC(C)C)N(C)C(=O)C[C@@H](C(=O)N(C)C)N(C)C(=O)[C@H]([C@@H](C)CC)N(C)C(=O)[C@H](C)NC(=O)[C@@H](C)NC(=O)[C@H](CCc2ccc(C(F)(F)F)c(Cl)c2)NC(=O)CN(C)C(=O)[C@H](Cc2ccc(C)cc2)N(C)C(=O)[C@@H]2CCN2C(=O)[C@H](C)N(C)C1=O [Compound 382] ([NMeL]I[NMeA][Aze][NMePhe(4-Me)][Sar][hPhe(3-Cl-4-CF3)][dA]A[NMeI][NMeD]-NMe2; lactam N-11) | 35
5 | CC[C@H](C)[C@@H]1NC(=O)[C@H](C)N(C)C(=O)C[C@@H](C)NC(=O)[C@H](CC(C)C)N(C)C(=O)[C@H](CC2CCCCC2)N(C)C(=O)[C@@H]2CCCN2C(=O)[C@H](CCc2ccc(C(F)(F)F)cc2)NC(=O)CN(C)C(=O)[C@H](Cc2ccc(Cl)cc2)N(C)C(=O)CN(C)C(=O)CN(C)C1=O [Compound 383] (cyclo(I[Sar][Sar][NMePhe(4-Cl)][Sar][hPhe(4-CF3)]P[NMeCha][NMeL][d(β3hA)][NMeA])) | 260
6 | CC[C@H](C)[C@@H]1NC(=O)[C@H](CC(C)C)N(C)C(=O)C[C@@H](C(=O)N(C)C)N(C)C(=O)[C@H](C2CCCC2)N(C)C(=O)[C@H](C(C)C)NC(=O)[C@H](CCN2CCCC(F)(F)C2)N(C)C(=O)[C@H](CCc2ccc(C(F)(F)F)c(Cl)c2)NC(=O)CN(C)C(=O)[C@H](CC2CCCCC2)N(C)C(=O)[C@@H]2CCN2C(=O)[C@H](C)N(C)C1=O [Compound 389] ([NMeL]I[NMeA][Aze][NMeCha][Sar][hPhe(3-Cl-4-CF3)][NMeAbu(3,3-F2-piperidino)]V[NMeGly(cPent)][NMeD]-NMe2; lactam N-11) | 45
7 | CCC[C@H]1C(=O)N[C@@H]([C@@H](C)CC)C(=O)N(C)[C@@H](C)C(=O)N2CC[C@H]2C(=O)N(C)[C@@H](CC2CCCCC2)C(=O)N(C)CC(=O)N[C@@H](CCc2ccc(C(F)(F)F)c(Cl)c2)C(=O)N2CCC[C@H]2C(=O)NC2(CCCC2)C(=O)N(C)[C@@H](C2CCCC2)C(=O)N(C)[C@H](C(=O)N2CCCCC2)CC(=O)N1C [Compound 391, (5S,8S,11S,15S,18S,23aS,29S,35S,37aS)-8-((S)-sec-butyl)-29-(3-chloro-4-(trifluoromethyl)phenethyl)-35-(cyclohexylmethyl)-18-cyclopentyl-5,6,12,16,19,33,36-heptamethyl-15-(piperidine-1-carbonyl)-11-propyldocosahydro-2H,4H-spiro[azeto[2,1-u]pyrrolo[2,1-i][1,4,7,10,13,16,19,22,25,28,31]undecaazacyclotetratriacontine-21,1′-cyclopentan]-4,7,10,13,17,20,23,28,31,34,37(14H,22H)-undecaone] ([NMeNva]I[NMeA][Aze][NMeCha][Sar][hPhe(3-Cl-4-CF3)]P[Ac5c][NMeGly(cPent)][NMeD]-Piperidide; lactam N-11) | 0.4
8 | CCC[C@H]1C(=O)NC2(CCCC2)C(=O)N(C)[C@@H](C2CCCCC2)C(=O)N(C)[C@H](C(=O)N2CCCCC2)CC(=O)N(C)[C@@H](CC(C)C)C(=O)N[C@@H]([C@@H](C)CC)C(=O)N(C)CC(=O)N2CCC[C@H]2C(=O)N(C)[C@@H](CC2CCCCC2)C(=O)N(C)CC(=O)N[C@@H](CCc2ccc(C(F)(F)F)c(Cl)c2)C(=O)N1C [Compound 392] ([NMeL]I[Sar]P[NMeCha][Sar][hPhe(3-Cl-4-CF3)][NMeNva][Ac5c][NMeChg][NMeD]-Piperidide; lactam N-11) | 12
9 | CC[C@H](C)[C@@H]1NC(=O)[C@H](CC(C)C)N(C)C(=O)C[C@@H](C(=O)N2CCCCC2)N(C)C(=O)[C@H](C(C)C)N(C)C(=O)[C@](C)(CC)NC(=O)[C@@H]2CCCN2C(=O)[C@H](CCc2ccc(C(F)(F)F)c(Cl)c2)NC(=O)CN(C)C(=O)[C@H](CC2CCCCC2)N(C)C(=O)[C@@H]2CCN2C(=O)[C@H](C)N(C)C1=O [Compound 394] ([NMeL]I[NMeA][Aze][NMeCha][Sar][hPhe(3-Cl-4-CF3)]P[Iva][NMeV][NMeD]-Piperidide; lactam N-11) | 13
10 | CC[C@H](C)[C@@H]1NC(=O)[C@H](C)N(C)C(=O)C[C@@H](C)NC(=O)[C@H](C2CCCC2)N(C)C(=O)C2(CCCC2)NC(=O)[C@@H]2CCCN2C(=O)[C@H](CCc2ccc(C(F)(F)F)c(Cl)c2)NC(=O)[C@@H](C)N(C)C(=O)[C@H](C)N(C)C(=O)[C@@H]2CCN2C(=O)[C@H](C)N(C)C1=O [Compound 396] (cyclo([Ac5c][NMeGly(cPent)][d(β3hA)][NMeA]I[NMeA][Aze][NMeA][dNMeA][hPhe(3-Cl-4-CF3)]P)) | 220
11 | CC[C@H](C)[C@@H]1NC(=O)[C@H](C)N(C)C(=O)C[C@@H](C(=O)N2CCCC2)NC(=O)[C@H](CC(C)C)N(C)C(=O)[C@H](Cc2ccccc2)N(C)C(=O)[C@H](CC(C)C)NC(=O)[C@H](CCc2ccc(C)cc2)NC(=O)CN(C)C(=O)[C@H](Cc2ccc(Cl)cc2)N(C)C(=O)CN(C)C(=O)CN(C)C1=O [Compound 398] ([NMeA]I[Sar][Sar][NMePhe(4-Cl)][Sar][X33]L[NMeF][NMeL]D-Pyrrolidide; lactam N-11) | 120
12 | CC[C@H](C)[C@@H]1NC(=O)[C@H](CC(C)C)N(C)C(=O)C[C@@H](C)NC(=O)[C@H](CC(C)C)N(C)C(=O)C2(CCCC2)NC(=O)[C@@H]2CCCN2C(=O)[C@H](CCc2ccc(C(F)(F)F)c(F)c2)NC(=O)CN(C)C(=O)[C@H](CC2CCCCC2)N(C)C(=O)CN(C)C(=O)CN(C)C1=O [Compound 402] (cyclo([Ac5c][NMeL][d(β3hA)][NMeL]I[Sar][Sar][NMeCha][Sar][hPhe(3-F,4-CF3)]P)) | 26
13 | CCCN1CC(=O)N(C)[C@@H](CC2CCCCC2)C(=O)N(C)CC(=O)N[C@@H](CCc2ccc(C(F)(F)F)c(Cl)c2)C(=O)N2CCC[C@H]2C(=O)NC2(CCCC2)C(=O)N(C)[C@@H](C(C)C)C(=O)N[C@H](C)CC(=O)N(C)[C@@H](CC(C)C)C(=O)N[C@@H]([C@@H](C)CC)C(=O)N(C)CC1=O [Compound 405] (cyclo([Ac5c][NMeV][d(β3hA)][NMeL]I[Sar][NPrGly][NMeCha][Sar][hPhe(3-Cl-4-CF3)]P)) | 270
14 | CC[C@H](C)[C@@H]1NC(=O)[C@H](CC(C)C)N(C)C(=O)C[C@@H](C)N(C)C(=O)[C@H](CC(C)C)N(C)C(=O)C2(CCOCC2)NC(=O)[C@@H]2CCCN2C(=O)[C@H](CCc2ccc(C(F)(F)F)c(F)c2)NC(=O)CN(C)C(=O)[C@H](CC2CCCCC2)N(C)C(=O)CN(C)C(=O)CN(C)C1=O [Compound 407] (cyclo(I[Sar][Sar][NMeCha][Sar][hPhe(3-F,4-CF3)]P[Thp][NMeL][NMedβ3hAla][NMeL])) | 39
15 | CC[C@H](C)[C@@H]1NC(=O)[C@H](C)N(C)C(=O)C[C@@H](C)NC(=O)[C@H](C2CCCC2)N(C)C(=O)C2(CCCC2)NC(=O)[C@@H]2CCCN2C(=O)[C@H](CCc2ccc(C(F)(F)F)c(Cl)c2)NC(=O)[C@@H](C)N(C)C(=O)[C@H](CC)N(C)C(=O)CN(C)C(=O)CN(C)C1=O [Compound 413] (cyclo([Ac5c][NMeGly(cPent)][d(β3hA)][NMeA]I[Sar][Sar][NMeAbu][dNMeA][hPhe(3-Cl-4-CF3)]P)) | 50
16 | CC[C@H](C)[C@@H]1NC(=O)[C@H](CC(C)C)N(C)C(=O)C[C@@H](C)NC(=O)[C@H](CC(C)C)N(C)C(=O)C2(CCCC2)NC(=O)[C@@H]2CCCN2C(=O)[C@H](CCc2ccc(C(F)(F)F)cc2)NC(=O)CN(C)C(=O)[C@H](CC2CCCCC2)N(C)C(=O)CN(C)C(=O)CN(C)C1=O [Compound 414] (cyclo([Ac5c][NMeL][d(β3hA)][NMeL]I[Sar][Sar][NMeCha][Sar][hPhe(4-CF3)]P)) | 110
